Structures are written as SMILES.

This passage reports Relative ionotropic activity results from ChEMBL document CHEMBL1122982, “Conformational factors in cardiac glycoside activity” (1985).

This experiment is filed under the species Cavia porcellus. Briefly: Relative […] activity evaluated in guinea pig left atria. In kind it is functional.
In turn, `C[C@@H]1O[C@@H](O[C@H]2CC[C@@]3(C)[C@@H](CC[C@@H]4[C@@H]3CC[C@]3(C)[C@@H](C5=CC(=O)OC5)CC[C@@]43O)C2)C[C@H](O)[C@@H]1O` came in with a Relative ionotropic activity of 15.
To `C[C@]12CC[C@H](O)C[C@H]1CC[C@@H]1[C@@H]2CC[C@]2(C)[C@@H](C3=CC(=O)OC3)CC[C@]12O` (stereo in doubt; V) [DIGITOXIGENIN] belongs 1.2; to `C[C@@H]1CC(=O)[C@]2(O)O[C@@H]3C[C@@]4(C)[C@@H](CC[C@@H]5[C@@H]4CC[C@]4(C)[C@@H](C6=CC(=O)OC6)CC[C@]54O)C[C@H]3O[C@@H]2O1` [Didehydro Gomphoside], 2.5; to `C[C@]12CC[C@H](O)C[C@H]1CC[C@@H]1[C@@H]2CC[C@]2(C)[C@@H](C3=CC(=O)OC3)CC[C@]12O` (stereo in doubt) [DIGITOXIGENIN], 1.
The same measure for `C[C@@H]1C[C@H](O)[C@]2(O)O[C@@H]3C[C@@]4(C)[C@@H](CC[C@@H]5[C@@H]4CC[C@]4(C)[C@@H](C6=CC(=O)OC6)CC[C@]54O)C[C@H]3O[C@@H]2O1` (stereo in doubt; form 1) [Gomphoside]: 23; for `C[C@@H]1C[C@H](O)[C@]2(O)O[C@@H]3C[C@@]4(C)[C@@H](CC[C@@H]5[C@@H]4CC[C@]4(C)[C@@H](C6=CC(=O)OC6)CC[C@]54O)C[C@H]3O[C@@H]2O1` (stereo in doubt; form 2) [Gomphoside]: 0.2; for `C[C@H]1O[C@H]2O[C@@H]3C[C@@H]4CC[C@@H]5[C@H](CC[C@]6(C)[C@@H](C7=CC(=O)OC7)CC[C@]56O)[C@@]4(C)C[C@H]3O[C@@]2(O)[C@@H](O)[C@H]1O`: 1.
To `C[C@@H]1O[C@@H](O[C@H]2CC[C@@]3(C)[C@H](CC[C@@H]4[C@@H]3CC[C@]3(C)[C@@H](C5=CC(=O)OC5)CC[C@]43O)C2)[C@H](O)[C@H](O)[C@H]1O` (stereo in doubt; form 2) belongs 9; to `C[C@@H]1O[C@@H](O[C@H]2CC[C@@]3(C)[C@H](CC[C@@H]4[C@@H]3CC[C@]3(C)[C@@H](C5=CC(=O)OC5)CC[C@]43O)C2)[C@H](O)[C@H](O)[C@H]1O` (stereo in doubt; form 1), 22; to `C[C@@H]1O[C@@H](O[C@H]2CC[C@@]3(C)[C@H](CC[C@@H]4[C@@H]3CC[C@]3(C)[C@@H](C5=CC(=O)OC5)CC[C@]43O)C2)[C@H](O)[C@H](O)[C@H]1O` (stereo in doubt; X), 3.
